pIC50: −log10 of the molar value. In brackets after ≈: the same amount, converted by molar mass.
What was measured:
[1] = molecular target: Mitogen-activated protein kinase 14 (Homo sapiens, UniProt Q16539); assay: Inhibition of human MAP p38-alpha kinase in vitro.
[2] = Aqueous solubility at pH 7.4; type: physicochemical

Mitogen-activated protein kinase 14, sequence (Q16539 whole entry): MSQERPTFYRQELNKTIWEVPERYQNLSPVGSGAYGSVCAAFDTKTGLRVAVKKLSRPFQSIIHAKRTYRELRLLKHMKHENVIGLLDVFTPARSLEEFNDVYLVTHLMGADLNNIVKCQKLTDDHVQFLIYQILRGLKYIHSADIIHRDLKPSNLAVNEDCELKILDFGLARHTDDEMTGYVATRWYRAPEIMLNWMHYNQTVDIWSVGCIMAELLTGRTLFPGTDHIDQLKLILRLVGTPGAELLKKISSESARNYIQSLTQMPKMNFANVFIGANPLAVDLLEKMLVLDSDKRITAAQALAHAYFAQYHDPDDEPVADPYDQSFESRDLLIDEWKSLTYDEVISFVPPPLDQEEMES

Work on `Cc1cc(F)ccc1-c1nc(N(C(N)=O)c2ccccc2Cl)c2ncn(C)c2n1` yielded a pIC50 [1] of 6.91.

In the case of `NC(=O)N(c1c(F)cccc1F)c1nc(-c2ccccc2F)nc2c1ncn2Cc1ccccc1`, the pIC50 [1] was 7.80.

Molecule `Cc1cccc(-c2nc(N(C(N)=O)c3c(F)cccc3F)c3ncn(C)c3n2)c1` has a pIC50 [1] of 6.46.

`Cn1cnc2c(N(C(N)=O)c3c(F)cccc3F)nc(-c3ccc(F)cc3F)nc21` gave a pIC50 [1] of 7.59.

With `Cn1cnc2c(N(C(N)=O)c3c(F)cccc3F)nc(-c3ccccc3)nc21` the pIC50 [1] was 6.29.

Molecule `Cc1ccccc1-c1nc(N(C(N)=O)c2c(F)cccc2F)c2ncn(C)c2n1` has a pIC50 [1] of 6.85.

Molecule `Cc1cc(F)ccc1-c1nc(N(C(N)=O)c2ccc(Cl)cc2)c2ncn(C)c2n1` has a pIC50 [1] of 5.01.

For `Cn1cnc2c(N(C(N)=O)c3c(F)cccc3F)nc(-c3cccc(Cl)c3)nc21`, the pIC50 [1] was 6.26.

Work on `Cn1cnc2c(N(C(N)=O)c3c(F)cccc3F)nc(-c3ccccc3F)nc21` yielded a pIC50 [1] of 7.44 and a solubility [2] of 1 µM (≈ 0.398 µg/mL).

`Cc1cc(F)ccc1-c1nc(N(C(N)=O)c2ccc(F)cc2)c2ncn(C)c2n1` gave a pIC50 [1] of 5.85.

`COc1ccccc1N(C(N)=O)c1nc(-c2ccc(F)cc2C)nc2c1ncn2C` showed a pIC50 [1] of less than 4.78.

`CN(C)CCn1cnc2c(N(C(N)=O)c3c(F)cccc3F)nc(-c3ccccc3F)nc21` showed a pIC50 [1] of 7.09 and a solubility [2] greater than 20 µM.

`Cn1cnc2c(N(C(N)=O)c3c(F)cccc3F)nc(-c3cc(F)cc(F)c3)nc21` gave a pIC50 [1] of less than 4.78.

With `Cn1cnc2c(N(C(N)=O)c3c(F)cccc3F)nc(-c3ccc(F)cc3)nc21` the pIC50 [1] was 6.00.

With `Cc1ccc(-c2nc(N(C(N)=O)c3c(F)cccc3F)c3ncn(C)c3n2)cc1` the pIC50 [1] was 5.68.

`Cn1cnc2c(N(C(N)=O)c3c(F)cccc3F)nc(-c3cccc(F)c3)nc21` gave a pIC50 [1] of 5.30.

`Cc1cc(F)ccc1-c1nc(N(C(N)=O)c2ccccc2)c2ncn(C)c2n1` gave a pIC50 [1] of less than 4.78.

With `Cc1cc(F)ccc1-c1nc(N(C(N)=O)c2c(F)cccc2F)c2ncn(C)c2n1` the pIC50 [1] was 6.89.

Molecule `Cc1cc(F)ccc1-c1nc(N(C(N)=O)c2c(F)cc(F)cc2F)c2ncn(C)c2n1` has a pIC50 [1] of 6.79.

For `Cn1cnc2c(N(C(N)=O)c3c(F)cccc3F)nc(-c3ccccc3Cl)nc21`, the pIC50 [1] was 7.52.

Reference: ChEMBL document CHEMBL1136664, “N-Phenyl-N-purin-6-yl ureas: the design and synthesis of p38alpha MAP kinase inhibitors” (Bioorg Med Chem Lett, 2003)
